# Reference: patent publication US20050239873A1 (priority 1999, published 2005)
# Assays:
# [1] = Binding to plasma proteins (ultrafiltration); format: in vitro ADME, dog; conditions: dog, plasma, presence of NaF+EDTA, read-out: Protein binding, Dog
# Protocol: Solutions of 2-OMe antimycin A3 were diluted with plasma (dog or human) containing NaF+EDTA to final concentrations of 1.0 or 0.2 μg/ml. Controls were diluted with water to the same final concentrations. These preparations were incubated at 37° C. for 20 min, at which time portions were taken and placed in the sample reservoirs of Amicon Centrifree® ultrafiltration systems (Millipore Co., Bedford, Mass.). At 37° C., the filter systems were centrifuged until the reservoirs were dry. From each filtrate, portions were taken for analysis by HPLC. The amounts present were designated as “free drug” (F). The concentrations of the unfiltered solutions were also determined by triplicate analyses. This amount represented the “total drug” concentration (T). The percentage of 2-OMe antimycin A3 bound to plasma proteins was calculated by the following formula: % bound=((T−F)/T)×100
# Similar experiments were performed for 2-OMe antimycin A3 in dog or rat plasma in the absence of NaF/EDTA.
# [2] = test system: TABX1A cells (under-expressing Bcl-xL); assay: Cell viability by trypan blue dye exclusion; conditions: 2 μg/ml, without fructose, six hours
# Description: Briefly, a DNA fragment encoding the full-length mouse BCl-xL cDNA was isolated from the plasmid PBS.BCL-xL (Tzung et al., Am. J. Path. 150:1985-1995, 1997, incorporated herein by reference in its entirety) by digestion with the restriction endonuclease EcoRI. This EcoRI fragment was cloned into the EcoRI site of the mammalian expression vector pSFFV (Fuhlbrigge et al., Proc. Nat. Acad. Sci. USA 85:5649-5653, 1988) in both sense and antisense orientations, to form expression plasmids pSFFV.Bcl-xL(sense) or pSFFV.Bcl-xL(antisense), respectively. The tumorigenic murine hepatocyte cell line TAMH was transfected by lipofection (Lipofectamine, Life Technologies, Rockville, Md., according to the manufacturer's recommendations) with the plasmids pSFFV.neo (the control), pSFFV.Bcl-xL(sense) or pSFFV.Bcl-xL(antisense). […] Transfectants were selected for the acquisition of neomycin resistance by growing cells in the presence of 750 μg/ml of G418. Bulk transfectants were cloned by limiting dilution and individual clones were screened by immunoblot analysis to determine the level of BCl-xL protein expression as described below.
# Selected transfectants were then tested for whole cell sensitivity to several apoptotic agents. Transfected cells were cultured to reach approximately 80% confluency prior to plating an equal number of cells from selected clones on 12-well tissue culture plates. […] Cell viability was determined by trypan blue dye exclusion. The percentage of viable cells was calculated by the number of viable cells (treated with a particular apoptogenic agent) divided by the number in the control group (untreated).
# TABX2S cells and TABX1A cells were also examined for the effects of various mitochondrial inhibitors. […] At various time points after drug treatment, cells were trypsinized, and cell viability was determined by trypan blue dye exclusion. The number of viable cells were counted and normalized to control group (i.e., % control=number of viable cells (treated group)/number of viable cells (control group)×100).
# [3] = test system: TABX1A cells; assay: Intracellular ATP, luciferase-luciferin assay; format: cell-based, murine; conditions: 2 μg/ml plus fructose 50 mM
# Protocol: (§1) Fructose is a substrate that provides ATP production through the glycolytic pathway. After a 30-60 minute incubation, cells were harvested and intracellular ATP concentrations were determined by an ATP-dependent luciferase-luciferin assay (Sigma, St. Louis, Mo.). The ATP concentrations in DMSO-treated cells were taken as 100%. In parallel experiments, cell viability was determined after six hours.
# [4] = test system: TABX2S cells; assay: Intracellular ATP, luciferase-luciferin assay; format: cell-based, murine; conditions: 2 μg/ml plus fructose 50 mM
# Protocol: as §1
# [5] = test system: NCI-H929; assay: Propidium iodide exclusion / flow cytometry cytotoxicity; format: cell-based, human; conditions: 5 to about 20 μg/ml
# Protocol: (§2) Cell survival was assayed by exclusion of propidium iodide (PI; 10 μg/ml) by unfixed cells. Annexin V-FITC (Pharmingen) or 3, 3′-dihexyloxacarbocyanine iodide (DiOC6(3); Molecular Probes) staining was analyzed together with PI to discriminate early apoptotic cells. Apoptotic cells were also measured as sub-G1 events among ethanol-fixed cells stained with 10 μg/ml PI. All cell samples were analyzed using a benchtop FACSCalibur™ (Becton Dickinson, San Jose, Calif.). Flow data were analyzed using MultiCycle AV software (Phoenix Flow Systems). For intracellular pH measurements, cell pellets were washed once and resuspended in 2 ml of HEPES-buffered medium (no phenol red and no serum). Carboxy-SNARF-1-AM (Molecular Probes, 1 mM stock in DMSO, stored at −20° C.) was added to a final concentration of 10 μM, and the cells were incubated for 30 min at 37° C. Following incubation with SNARF, cells were sedimented and the pellets were held on ice. Immediately before analysis, pellets were resuspended in […] (HBSS; experimental buffer) or high-[K+] buffer containing nigericin (calibration samples).
# [6] = test system: U266; assay: as above; format: cell-based, human; conditions: 5 to about 20 μg/ml
# Protocol: as §2
Compound,"fraction unbound at 20 min, 1000 ng/ml [1]",survival [2] [%],"ATP level, of control [3]","ATP level, of control [4]",sensitivity (PI exclusion) [5],sensitivity (PI exclusion) [6]
"CCCC[C@H]1C(=O)OC(C)[C@H](NC(=O)c2cccc(NC=O)c2OC)C(=O)O[C@@H](C)C1OC(=O)CC(C)C (stereo partly drawn) [2-OMeA3, Antimycin A3 methyl ether]",< 0.01,,,,,
antimycin A,,87,approximately 60%,approximately 60%,sensitive,sensitive
